For orientation: IC50 means the point on the concentration scale where inhibition reaches its midpoint.

The source of these data is patent US12624015B2, “JNK inhibitors as anticancer agents” (University of Iowa Research Foundation, priority 2019, dated 2026).

The assay concerns A549 adenocarcinoma cell line. The assay can be described thus: In vitro antitumor screening, MTS assay. The format is cell-based. The conditions noted are these: Homo sapiens. The procedure:
The synthesized derivatives were tested for their antitumor activity adopting MTS assay against A549 adenocarcinoma cell line following the reported assay method In Riss et al. Results are shown in Table 2.
A general note: Formazan colour is commonly taken as a measure of viable cells.

The mark [1] stands for this setting: A549 cell line, read-out: IC50, MTS assay against A549 cell line.
[2] abbreviates: A549 adenocarcinoma cell line, Table 2, read-out: IC50.

Read-outs that look alike come from different tables or passages of the source.

Consider `N#Cc1c(NC(=O)c2cccc(Br)c2)sc2c1CCCC2` [Compound 4], for which the half-maximal inhibitory concentration (IC50) under setting [1] turned out to be 7.6 µM.
Consider `N#Cc1c(NCc2ccc(Br)cc2)sc2c1CCCC2` [Compound 10], for which the IC50 by setting is: under setting [2], 2.7 µM; under setting [1], 2.7 µM.
Consider `N#Cc1c(NC(=O)NCc2ccccc2)sc2c1CCCC2` [Compound 11], for which the IC50 reads like this: under setting [2], 1.6 µM; under setting [1], 1.6 µM.
